Drawing on paper PMC9879382 (Prostaglandins & other lipid mediators, 2022), this text covers IC50, half-life and microsomal CLint for 12 molecules.

Where two headings read alike, the source gives them in different places. A value given as a limit tells only on which side of the number the result lay.

One data set addresses T1, rat sEH (Rattus norvegicus, UniProt P80299).
T1 sequence (P80299 1-554): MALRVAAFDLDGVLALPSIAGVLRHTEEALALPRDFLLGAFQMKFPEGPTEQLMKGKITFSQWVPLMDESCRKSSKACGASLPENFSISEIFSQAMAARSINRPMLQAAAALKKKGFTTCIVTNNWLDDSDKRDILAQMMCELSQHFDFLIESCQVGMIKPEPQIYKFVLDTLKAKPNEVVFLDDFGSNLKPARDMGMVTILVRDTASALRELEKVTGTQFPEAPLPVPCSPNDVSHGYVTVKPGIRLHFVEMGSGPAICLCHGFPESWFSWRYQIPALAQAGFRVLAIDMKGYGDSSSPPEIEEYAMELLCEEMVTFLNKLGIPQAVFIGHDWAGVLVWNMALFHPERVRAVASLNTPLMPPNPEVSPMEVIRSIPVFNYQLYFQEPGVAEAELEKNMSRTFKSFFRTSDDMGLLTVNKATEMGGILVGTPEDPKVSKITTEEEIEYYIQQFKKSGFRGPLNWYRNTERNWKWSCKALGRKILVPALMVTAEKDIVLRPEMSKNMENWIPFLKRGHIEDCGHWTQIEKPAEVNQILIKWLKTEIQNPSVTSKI
The data set can be described thus: sEH inhibition assay. The class given is biochemical.

Data set [1] is described as follows: Microsomal liver stability assay, rat. It counts as in vitro ADME. As to conditions: both, pH 7.4.
A further data set deals with T2, human sEH (Homo sapiens, UniProt P34913).
T2 sequence (P34913 1-555): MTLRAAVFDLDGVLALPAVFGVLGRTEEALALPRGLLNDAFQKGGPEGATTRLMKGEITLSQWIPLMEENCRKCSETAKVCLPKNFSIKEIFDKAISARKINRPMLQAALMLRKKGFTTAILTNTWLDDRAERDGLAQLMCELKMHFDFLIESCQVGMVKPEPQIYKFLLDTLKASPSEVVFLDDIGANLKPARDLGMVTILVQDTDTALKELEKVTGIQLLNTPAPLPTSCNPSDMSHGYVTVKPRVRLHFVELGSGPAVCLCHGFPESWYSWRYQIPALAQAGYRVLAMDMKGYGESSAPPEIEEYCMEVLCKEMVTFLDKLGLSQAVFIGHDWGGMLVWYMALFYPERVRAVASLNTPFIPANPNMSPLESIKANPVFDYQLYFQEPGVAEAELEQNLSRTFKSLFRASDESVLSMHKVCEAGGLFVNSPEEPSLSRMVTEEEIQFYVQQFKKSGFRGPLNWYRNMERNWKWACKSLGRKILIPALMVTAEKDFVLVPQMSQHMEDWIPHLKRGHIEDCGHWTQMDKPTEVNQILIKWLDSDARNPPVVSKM
The data set can be described thus: sEH inhibition assay. It counts as biochemical. As to conditions: CMNPC 5 μM, pH 7.4, 30 °C.

A short description of data set [2]: Microsomal liver stability assay, mouse. It counts as in vitro ADME. As to conditions: pH 7.4.
A further data set deals with T3, mouse sEH (Mus musculus, UniProt P34914).
T3 sequence (P34914 1-554): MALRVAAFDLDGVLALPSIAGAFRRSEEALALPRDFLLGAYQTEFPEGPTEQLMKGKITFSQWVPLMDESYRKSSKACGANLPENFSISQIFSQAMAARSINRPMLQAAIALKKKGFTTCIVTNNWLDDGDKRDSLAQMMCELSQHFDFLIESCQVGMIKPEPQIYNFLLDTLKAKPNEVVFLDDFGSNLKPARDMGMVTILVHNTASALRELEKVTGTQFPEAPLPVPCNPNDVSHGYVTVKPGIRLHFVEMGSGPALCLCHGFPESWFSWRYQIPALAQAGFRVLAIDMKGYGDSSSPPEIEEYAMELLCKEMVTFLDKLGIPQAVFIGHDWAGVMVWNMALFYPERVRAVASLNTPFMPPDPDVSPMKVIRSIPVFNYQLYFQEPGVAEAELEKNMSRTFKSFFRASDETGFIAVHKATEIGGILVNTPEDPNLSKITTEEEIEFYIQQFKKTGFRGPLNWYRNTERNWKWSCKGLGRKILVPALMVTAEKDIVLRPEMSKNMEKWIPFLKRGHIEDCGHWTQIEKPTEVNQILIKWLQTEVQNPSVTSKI
The data set can be described thus: sEH inhibition assay. It counts as biochemical.

Another data set has as its target T4, human FAAH (Homo sapiens, UniProt O00519).
T4 sequence (O00519 1-579): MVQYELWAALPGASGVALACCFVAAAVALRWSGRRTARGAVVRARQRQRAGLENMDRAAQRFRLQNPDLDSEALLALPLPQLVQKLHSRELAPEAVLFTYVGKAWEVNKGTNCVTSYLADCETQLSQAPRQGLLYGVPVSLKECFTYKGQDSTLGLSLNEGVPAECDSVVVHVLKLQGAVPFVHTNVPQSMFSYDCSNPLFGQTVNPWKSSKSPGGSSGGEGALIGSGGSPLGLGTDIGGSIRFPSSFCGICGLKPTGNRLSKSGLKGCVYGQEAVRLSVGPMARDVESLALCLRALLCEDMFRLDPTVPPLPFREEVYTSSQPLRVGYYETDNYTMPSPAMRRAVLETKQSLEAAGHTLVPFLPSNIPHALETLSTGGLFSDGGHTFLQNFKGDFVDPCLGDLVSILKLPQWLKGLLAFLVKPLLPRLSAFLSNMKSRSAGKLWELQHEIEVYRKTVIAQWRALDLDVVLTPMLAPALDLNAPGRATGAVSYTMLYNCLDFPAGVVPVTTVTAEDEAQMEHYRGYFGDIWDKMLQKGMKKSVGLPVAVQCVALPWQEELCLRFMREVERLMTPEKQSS
The data set can be described thus: FAAH inhibition assay. The class given is biochemical. The following applies: OMP 50 μM, pH 8, 37 °C.

A short description of data set [3]: Microsomal liver stability assay, human. As to conditions: pH 7.4. The class given is in vitro ADME.
[4] abbreviates: Human sEH IC50, human recombinant sEH.
The mark [5] stands for this setting: Human FAAH IC50, human recombinant FAAH.
Where [6] appears, read: read-out: Rat sEH IC50, rat sEH, CMNPC 5 μM, pH 7.4, 30 °C.

For `O=C(Nc1ccc(-c2nc3ccccc3s2)cc1)C1CCN(S(=O)(=O)c2ccccc2C(F)(F)F)CC1` [Compound 7a, N-(4-(benzo[d]thiazol-2-yl)phenyl)-1-((2-(trifluoromethyl)phenyl)sulfonyl)piperidine-4-carboxamide], the IC50 against rat sEH was 5.7 nM; on human sEH (setting [4]), 3.1 nM; on mouse sEH it was 7210 nM; on human FAAH (setting [5]), 0.0097 µM. The half-life at 1 μM in data set [1] (rat liver microsomes) is 14.7 min; in data set [2] (mouse liver microsomes), 15.8 min; in data set [3] (human liver microsomes), 24 min. In addition, the values for the microsomal CLint at 1 μM in data set [1] (rat liver microsomes), in data set [2] (mouse liver microsomes) and in data set [3] (human liver microsomes) were 94 µL/min/mg, 87 µL/min/mg and 57 µL/min/mg, respectively.
Regarding `N#Cc1ccccc1S(=O)(=O)N1CCC(C(=O)Nc2ccc(-c3nc4ccccc4s3)cc2)CC1` [Compound 7b, N-(4-(benzo[d]thiazol-2-yl)phenyl)-1-((2-cyanophenyl)sulfonyl)piperidine-4-carboxamide], the IC50 at rat sEH was found to be 185 nM; on human sEH (setting [4]), 19.5 nM; on mouse sEH it was 578 nM; on human FAAH (setting [5]), 0.287 µM.
On the same counts, the results for `O=C(Nc1ccc(-c2nc3ccccc3s2)cc1)C1CCN(S(=O)(=O)c2cccc(C(F)(F)F)c2)CC1` [Compound 7c, N-(4-(benzo[d]thiazol-2-yl)phenyl)-1-((3-(trifluoromethyl)phenyl)sulfonyl)piperidine-4-carboxamide] are 124 nM, 89.3 nM, 4310 nM and 0.0223 µM.
The corresponding values for `O=C(Nc1ccc(-c2nc3ccccc3s2)cc1)C1CCN(S(=O)(=O)c2ccc(C(F)(F)F)cc2)CC1` [Compound 7d, N-(4-(benzo[d]thiazol-2-yl)phenyl)-1-((4-(trifluoromethyl)phenyl)sulfonyl)piperidine-4-carboxamide] are 28.9 nM, 51.5 nM, 9180 nM and 0.0481 µM.
On to `O=C(Nc1ccc(-c2nc3ccccc3s2)cc1)C1CCN(S(=O)(=O)c2ccc([N+](=O)[O-])cc2)CC1` [Compound 7e, N-(4-(benzo[d]thiazol-2-yl)phenyl)-1-((4-nitrophenyl)sulfonyl)piperidine-4-carboxamide], for which the IC50 against rat sEH was 4480 nM; on mouse sEH, above 10000 nM.
Turning to `O=C(Nc1ccc(-c2nc3ccccc3s2)cc1)C1CCN(S(=O)(=O)c2ccc(F)cc2Cl)CC1` [Compound 7f, N-(4-(benzo[d]thiazol-2-yl)phenyl)-1-((2-chloro-4-fluorophenyl)sulfonyl)piperidine-4-carboxamide], the IC50 against rat sEH was 116 nM; on human sEH (setting [4]) it was 16.9 nM; against mouse sEH it was 267 nM; on human FAAH (setting [5]) it was 0.0191 µM.
For `O=C(Nc1ccc(-c2nc3ccccc3s2)cc1)C1CCN(S(=O)(=O)c2ccc(C(F)(F)F)cc2Cl)CC1` [Compound 7g, N-(4-(benzo[d]thiazol-2-yl)phenyl)-1-((2-chloro-4-(trifluoromethyl)phenyl)sulfonyl) piperidine-4-carboxamide], the IC50 at rat sEH (setting [6]) is 859 nM; at human sEH (read-out: Human sEH IC50, human recombinant sEH), 432 nM; on mouse sEH (read-out: Mouse sEH IC50, mouse sEH, CMNPC 5 μM, pH 7.4, 30 °C), 9060 nM; at human FAAH (read-out: Human FAAH IC50, human recombinant FAAH) it was 0.0266 µM.
In the case of `O=C(Nc1ccc(-c2nc3ccccc3s2)cc1)C1CCN(S(=O)(=O)c2ccc(F)cc2Br)CC1` [Compound 7h, N-(4-(benzo[d]thiazol-2-yl)phenyl)-1-((2-bromo-4-fluorophenyl)sulfonyl)piperidine-4-carboxamide], the IC50 was 11.8 nM at rat sEH, 8.2 nM on human sEH (setting [4]), 402 nM at mouse sEH and 0.0289 µM on human FAAH (setting [5]).
The corresponding values for `O=C(Nc1ccc(-c2nc3ccccc3s2)cc1)C1CCN(S(=O)(=O)c2cc(C(F)(F)F)cc(C(F)(F)F)c2)CC1` [Compound 7j, N-(4-(benzo[d]thiazol-2-yl)phenyl)-1-((3,5-bis(trifluoromethyl)phenyl)sulfonyl)piperidine-4-carboxamide] are 2910 nM, 4840 nM, above 10000 nM and 0.0419 µM.
The corresponding values for `O=C(Nc1ccc(-c2nc3ccccc3s2)cc1)C1CCN(S(=O)(=O)c2c(Cl)cc(Br)cc2Cl)CC1` [Compound 7k, N-(4-(benzo[d]thiazol-2-yl)phenyl)-1-((4-bromo-2,6-dichlorophenyl)sulfonyl)piperidine-4-carboxamide] are 42.5 nM, 41 nM, 1790 nM and 0.0897 µM.
The molecule `C[C@]12CC[C@H]3[C@@H](CCC4=CC(=O)CC[C@@]43C)[C@@H]1CC[C@@H]2O` [Testosterone (control), testosterone, reference compound] yielded a half-life at 1 μM in data set [1] (microsomes) of 1.1 min. For the same molecule, the microsomal CLint at 1 μM in data set [1] (microsomes) is 1250 µL/min/mg; in data set [2] (microsomes), 280 µL/min/mg; in data set [3] (microsomes), 61 µL/min/mg.
For the molecule `O=C(Nc1ccc(OC(F)(F)F)cc1)NC1CCC(Oc2ccc(C(=O)O)cc2)CC1` (stereo not shown) [t-TUCB, reference compound], at rat sEH (setting [6]), the IC50 is 9.3 nM.

The term IC50 denotes the concentration needed to halve the response being measured. As a reminder, the half-life is the time needed for the level to fall by half in the phase considered. The term microsomal CLint denotes a measure of how fast metabolising enzymes remove a compound, apart from limits set by blood flow. Read a low microsomal CLint as greater metabolic stability.
